Source: US5270310A, “N-aminoalkyl amide inhibitors of protein kinase C” (Sphinx Pharmaceuticals Corporation, priority 1991, dated 1993)
Read-outs that look alike come from different tables or passages of the source.

Legend:
[1] = target: protein kinase C (PKC); test: Protein Kinase C Inhibition; assay type: biochemical, rat
Protocol: The protein kinase C (PKC) assay is designed to duplicate the in vivo conditions required for protein kinase C function. Therefore, pH, salt and cofactor concentrations are similar to physiologic levels. Histone H1 (lysine rich) is used in the assay as the phosphorylation acceptor protein because it is readily available and serves as a good substrate for protein kinase C. The enzyme is prepared from rat brain and is purified to apparent homogeneity as determined by a single band on silver stained SDS-polyacrylamide. Studies on the mechanism of regulation of protein kinase C by phospholipids, DAG and Ca^+2 have been hampered by the physical properties of the lipid cofactors. In the screening assay, phosphatidylserine (PS) and DAG are co-sonicated to form unilamellar and multilamellar vesicles. The concentration of lipids in the assay are suboptimal to maximize the detection potential of the assay for inhibitors. […] The assay is started with the addition of enzyme and stopped after 10 min by the addition of 25% trichloroacetic acid (TCA) and 1.0 mg/ml bovine serum albumin (BSA). The radioactive histone product is retained and washed on glass fiber filters that allow the unreacted ^32 P-ATP to pass through. The amount of phosphorylation is determined by the radioactivity measured in a scintillation counter. Controls are included in every assay to measure background activity in the absence of enzyme, activity in the absence of lipids and the maximum enzyme activity with saturating levels of the activator lipids.
Both the free base and the HCl salt were tested.

[2] = tested on: MCF-7 human breast tumor cell line; test: Human Tumor Cell Growth Inhibition, MCF-7; assay type: cell-based; details: for IC50: Homo sapiens, MCF7, 3H-thymidine incorporation, value outside parentheses (not salt); for inhibit growth of MCF-7 cells: result in words
Protocol: MCF-7 a human breast tumor cell line and MCF-7/ADR an adriamycin resistant line of MCF-7 cells were obtained from the National Cancer Institute, Frederick, Md. […] Human tumor cells are trypsinized (0.05% trypsin, GIBCO), counted with a hemacytometer and seeded at a concentration of 10,000 cells/well in a 96 well microtiter plate. After allowing cells to attach to the surface overnight, the culture medium is aspirated and replaced with 100 μl of fresh medium. Test agents are diluted to determine dose response at 2× final concentration and added in quadruplicate at 100 μl/well to bring the total volume of each well to 200 μl. The microtiter plate is then incubated at 37° C. 5% CO2 overnight (18-24 hrs) before ^3 H-thymidine is added at a concentration of 0.5 μCi/well in 50 μl culture medium. The plate is incubated again for 4 hrs under the same conditions as above. Supernatant is then aspirated and 50 μl trypsin (0.05%, GIBCO) is added to each well. Cells are checked microscopically to determine detachment from surfaces, and plates are then harvested with a cell harvester (PHD, Cambridge Technology, Inc.) Filter papers corresponding to wells are placed in scintillation vials and counted to determine the amount of ^3 H-thymidine incorporated by the cells. Test agent response is compared to a positive control of cell wells with culture media only to determine the IC50. IC50 is the concentration of test compound required to inhibit fifty per cent of the incorporation of ^3 H-thymidine into proliferating cells not exposed to test agent. Uptake of ^3 H-thymidine is a standard test for measuring the metabolism of cells. Cells which are actively proliferating take up ^3 H-thymidine, whereas cells that are not proliferating take up ^3 H-thymidine at much slower rates or not at all. Test agents that inhibit the uptake of ^3 H-thymidine thus slow the growth of cells.

[3] = tested on: PMA-stimulated neutrophils; test: Neutrophil Superoxide Anion (O2^-) Release Assay; assay type: cell-based, human; details: for IC50: Homo sapiens, Neutrophil, PMA-stimulated; for inhibit O2^- production by PMA-stimulated neutrophils: result in words
Protocol: Neutrophils are isolated form whole blood collected from human volunteers. All reagent materials are obtained from Sigma Chemical Company with the exception of isotonic saline (Travenol Laboratories, Inc., Deerfield, Ill.) and lymphocyte separation medium (Organon Teknika, Durham, N.C.).
Whole blood is drawn and mixed with sodium heparin (final conc. 10 units/ml) to prevent clotting. An equal volume of dextran (3.0%) in isotonic saline is added, mixed, and allowed to settle for 30 min to bind red blood cells (RBC). Supernatant is removed, underlayered with lymphocyte separation medium and centrifuged for 40 min at 400 xg in a centrifuge (Beckman GPR, Norcross, Ga). The pellet is alternately resuspended in 0.2% and 1.6% NaCl to lyse RBCs before washing with Hank's Balanced Salt Solution (HBSS). The washed pellet is resuspended in 10 mL HBSS and placed on ice before counting on a hemacytometer.
The neutrophil cell concentration is adjusted to 2×10^6 cells/ml with HBSS before adding 0.8 mL cells to 12×75 mm polypropylene test tubes (Fisher Scientific). Test agents are diluted to determine dose response and added at 10× final concentration at a volume of 0.1 mL/tube in duplicate. Then 10× concentrations of cytochrome C (15 mg/ml) with catalase (3000 units/ml) either alone or containing 25 ng/ml phorbol 12-myristate 13-acetate (PMA) are added at a volume of 0.1 mL/tube and incubated at 37° C. for 30 min before stopping the reaction by placing tubes on ice. Tubes are then centrifuged at 900 xg for 10 min, 0.5 mL supernatant is removed and added to 0.5 mL H2 O in a microcuvette. Optical density (OD) of cytochrome c is read in a spectrophotometer (Shimadzu) at 550 nm. The ΔOD of cytochrome c is obtained between PMA-stimulated and non-stimulated tubes, and the dose responses of the test agents are compared to the positive controls (which contain HBSS in place of test agents). PMA stimulates O2^- production which reduces cytochrome c. Reducing cytochrome c increases its absorbance, and the change in OD of cytochrome c is proportional to the amount of O2^- produced by PMA stimulation. Inhibition of the O2^- burst by test compounds of the invention is seen as a reduction in the change in optical density. Inhibition is expressed as IC50 μM and is the amount of test compound that will inhibit fifty percent of the PMA-stimulated respiratory outburst, i.e. O2^- production.

[4] = tested on: MCF-7 human breast tumor cell line; test: Human Tumor Cell Growth Inhibition, MCF-7; assay type: cell-based; details: MCF7, 3H-thymidine incorporation, value in parentheses: salt
[5] = target: T1, protein kinase (PKA), catalytic subunit (Homo sapiens, UniProt P17612); test: cAMP-Dependent Protein Kinase (PKA) Assay; assay type: biochemical; details: free base
T1 construct: purchased Sigma Chemical Company, St. Louis, Mo
Protocol: Compound found to be inhibitors of protein kinase C are tested for inhibitory activity against protein kinase (PKA). This enzyme, like protein kinase C, plays an important role in cell-cell communication and is activated by a second messenger, cAMP. Secondary screening against PKA is useful for ascertaining the selectivity of the compounds of the invention. The catalytic subunit of PKA (Sigma Chemical Company, St. Louis, Mo.) is mixed with buffer before addition of the inhibitor in dimethylsulfoxide (DMSO). The assay is started by the addition of 32P-ATP and the reaction is allowed to proceed for 10 min before stopping with 25% trichloroacetic acid (TCA) and 1.0 mg/ml bovine serum albumin (BSA). The phosphorylated protein is isolated by filtration and the radioactivity is counted in a beta scintillation counter.

[6] = tested on: NHEK cells (proliferating keratinocytes); test: Human Keratinocyte Inhibition; assay type: cell-based; details: 3H-thymidine incorporation
Protocol: Proliferating keratinocytes (NHEK cells purchased from Clonetics, Inc., San Diego, Calif.) in second passage were grown in Keratinocyte Growth Medium (KGM) (Clonetics, Inc.) Cells are trypsinized (0.025% trypsin, Clonetics), counted with a hemacytometer (Scientific Products), and seeded at a concentration of 2,500 cells/well in a 96 well microtiter plate. After allowing cells to attach to the surface overnight, the culture medium is aspirated and replaced with 100 μl of fresh KGM. […] IC50 is the concentration of test compound required to inhibit fifty percent of the incorporation of ^3 H-thymidine into proliferating cells not exposed to test agent.

[7] = value in parentheses: salt, read-out: Neutrophil Superoxide Release IC50 (salt)
[8] = value outside parentheses (not salt), read-out: Neutrophil Superoxide Release IC50
[9] = value in parentheses: salt, read-out: NHEK IC50 (salt)
[10] = value outside parentheses (not salt), read-out: NHEK IC50

IC50 ([1]; HCl salt) [µM] | IC50 ([1]; free base) [µM] | IC50 [2] [µM] | IC50 [3, 7] [µM] | IC50 [3, 8] [µM] | IC50 [4] [µM] | IC50 [5] [µM] | SMILES | inhibit growth of MCF-7 cells [2] | inhibit O2^- production by PMA-stimulated neutrophils ([3]; HCl salt) | inhibit O2^- production by PMA-stimulated neutrophils ([3]; compound itself) | IC50 [6, 9] [µM] | IC50 [6, 10] [µM]
57 | 107 | 1.5 | 2.39 | 45 | 2.9 | 90 | CCCCCCCCCCCCCCCC(=O)N(C)CCCN(C)C [Compound 4, N-Hexadecanoyl-N,N',N'-trimethyl-1,3-propanediamine] | effectively inhibit growth of MCF-7 cells at micromolar concentrations | inhibit O2^- production by PMA-stimulated neutrophils at micromolar concentrations | inhibit O2^- production by PMA-stimulated neutrophils at micromolar concentrations | 2.4 | 0.8
38 | 50 | – | – | – | – | 119 | CCCCCCCCCCCCCCCC(=O)N(CC)CCCN(C)C [Compound 7, N,N-Dimethyl-N'-ethyl-N'-hexadecanoyl-1,3-propanediamine] | – | – | – | – | –
48 | 131 | 9.7 | – | 2.9 | – | > 218 | CCCCCCCCCCCCCCCC(=O)N(CCC)CCCN(C)C [Compound 8, N,N-Dimethyl-N'-hexadecanoyl-N'-propyl-1,3-propanediamine] | – | – | – | – | 1.03
130 | 146 | 5.1 | – | 0.9 | – | 172 | CCCCCCCCCCCCCCCC(=O)N(CCCN(C)C)C(C)C [Compound 9, N,N-Dimethyl-N'-(2-propyl)-N'-hexadecanoyl-1,3-propanediamine] | – | – | – | – | 0.14

Continued, molecule first:

SMILES | IC50 ([1]; HCl salt) [µM] | IC50 ([1]; free base) [µM] | IC50 [2] [µM] | IC50 [3, 7] [µM] | IC50 [3, 8] [µM] | IC50 [4] [µM] | IC50 [5] [µM] | inhibit growth of MCF-7 cells [2] | inhibit O2^- production by PMA-stimulated neutrophils ([3]; HCl salt) | inhibit O2^- production by PMA-stimulated neutrophils ([3]; compound itself) | IC50 [6, 9] [µM] | IC50 [6, 10] [µM]
CCCCCCCCCCCCCCCC(=O)N(C)CCN(C)C [Compound 3] | 66 | 40 | – | – | – | – | – | – | – | – | – | –
CCCCCCCCCCCCCCCC(=O)NCCCN(C)C [Compound 6, N,N-Dimethyl-N'hexadecanoyl-1,3-propanediamine] | 50 | 50 | 4.5 | 2.8 | 2.32 | 3.5 | 140 | effectively inhibit growth of MCF-7 cells at micromolar concentrations | inhibit O2^- production by PMA-stimulated neutrophils at micromolar concentrations | inhibit O2^- production by PMA-stimulated neutrophils at micromolar concentrations | 0.78 | –
CCCCCCCCCCCCCCCC(=O)NCCCN(CC)CC [Compound 10, N,N-Diethyl-N'-hexadecanoyl-1,3-propanediamine] | – | 131 | – | – | – | – | > 218 | – | – | – | – | 1.56
CCCCCCCCCCCCCCCC(=O)NCCC[N+](C)(C)C [Compound 15, N-Hexadecanoyl-3-trimethylammoniumpropylamine iodide] | – | 24 | 5 | – | – | – | – | – | – | – | – | 3.3
CCCCCCCCCCCCCCCCN(CCCN(C)C)C(C)=O [Compound 20, N-Acetyl-N-hexadecyl-N',N'-dimethyl-1,3-propanediamine] | 44 | 69 | – | – | 1.1 | – | 67 | – | – | – | – | 1.3
CCCCCCCCCCCCCCCC(=O)N(CCC[N+]1(C)CCOCC1)Cc1ccccc1 [Compound 22] | – | 45 | 15.4 | – | – | – | < 44 | – | – | – | – | 1.6
CCCCCCCCCCCCCCCC(=O)N(C)CCN(C)C [Compound 25, N,N,N'-Trimethyl-N'-hexadecanoyl-1,3-ethanediamine] | 100 | 92 | – | – | – | – | > 218 | – | – | – | – | –
